# From US8460669B2, “Compositions and methods for identifying response targets and treating flavivirus infection responses” (Academia Sinica, priority 2005, dated 2013)
# Assays:
# DVLR1/CLEC5A = biological target: T1, DVLR1/CLEC5A (Homo sapiens, UniProt Q9NY25); experiment: Sugar competition, biotinylated DV binding to DVLR1/CLEC5A-transfected 293T cells; type: cell-based; conditions: flow cytometry
# T1 construct: expressed in transfected cells; host or cells: 293T cells
# T1 sequence (Q9NY25 1-187 isoform Q9NY25-2): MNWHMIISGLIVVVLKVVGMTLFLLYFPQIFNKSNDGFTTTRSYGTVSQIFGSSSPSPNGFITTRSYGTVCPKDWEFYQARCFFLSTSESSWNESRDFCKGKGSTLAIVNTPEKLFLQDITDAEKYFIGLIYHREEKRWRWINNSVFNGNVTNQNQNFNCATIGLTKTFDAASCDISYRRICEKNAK
# Description: In FIG. 16b, complexes of DV (5×10^6 PFU) with receptor.Fc (5 μg) were immunoprecipitated and detected on westerns with mAb to DV envelope (E) protein. […] FIGS. 16d and 16e show sugar competition assays wherein both DC-SIGN (CLEC4L) and DVLR1/CLEC5A increase DV binding to human 293T cells (FIG. 16d), while addition of sugars inhibits biotinylated DV binding to DC-SIGN- (left panel) or DLVR1/CLEC5A- (right panel) transfected 293T cells in a dose-dependent manner as determined by flow cytometry (FIG. 16e). According to FIG. 16e, MFI represents mean fluorescence intensity. Units (U) for monosaccharide (mannose and fucose) and polysaccharide (mannan) are mM and mg/ml, respectively. […] Data are expressed as the mean±s.d. of three independent experiments. Two-tailed, Student's t-tests were performed.
# There are two conserved N-linked glycosylation sites at Asn-67 and Asn-153 of E protein (Pokidysheva, E. et al., Cell 124:485-93 (2006)), and the attached glycans (with terminal fucose and mannose) have been implicated in cellular attachment and viral entry (Modis, Y. et al., J. Virol. 79:1223-1231 (2005)). To investigate the participation of glycans in the association of DVLR1/CLEC5A with DV, virions were incubated with fucose, mannose, or mannan; where the last two sugars are the ligands for DC-SIGN (Mitchell et al., J. Biol. Chem. 276: 28939-28945 ([…])).
# MMR.Fc = biological target: T2, MMR.Fc (Homo sapiens, UniProt P22897); experiment: Sugar competition EIA, MMR.Fc binding to GLPS-F3; conditions: sugar 1 mg/ml
# T2 construct: The extracellular domains of lectin receptors, TREMs and TLTs were cloned by the reverse-transcriptase polymerase chain reaction (RT-PCR); made in house; host or cells: 293-F (FreeStyle 293) cells
# T2 sequence (P22897 19-1389 limits assumed): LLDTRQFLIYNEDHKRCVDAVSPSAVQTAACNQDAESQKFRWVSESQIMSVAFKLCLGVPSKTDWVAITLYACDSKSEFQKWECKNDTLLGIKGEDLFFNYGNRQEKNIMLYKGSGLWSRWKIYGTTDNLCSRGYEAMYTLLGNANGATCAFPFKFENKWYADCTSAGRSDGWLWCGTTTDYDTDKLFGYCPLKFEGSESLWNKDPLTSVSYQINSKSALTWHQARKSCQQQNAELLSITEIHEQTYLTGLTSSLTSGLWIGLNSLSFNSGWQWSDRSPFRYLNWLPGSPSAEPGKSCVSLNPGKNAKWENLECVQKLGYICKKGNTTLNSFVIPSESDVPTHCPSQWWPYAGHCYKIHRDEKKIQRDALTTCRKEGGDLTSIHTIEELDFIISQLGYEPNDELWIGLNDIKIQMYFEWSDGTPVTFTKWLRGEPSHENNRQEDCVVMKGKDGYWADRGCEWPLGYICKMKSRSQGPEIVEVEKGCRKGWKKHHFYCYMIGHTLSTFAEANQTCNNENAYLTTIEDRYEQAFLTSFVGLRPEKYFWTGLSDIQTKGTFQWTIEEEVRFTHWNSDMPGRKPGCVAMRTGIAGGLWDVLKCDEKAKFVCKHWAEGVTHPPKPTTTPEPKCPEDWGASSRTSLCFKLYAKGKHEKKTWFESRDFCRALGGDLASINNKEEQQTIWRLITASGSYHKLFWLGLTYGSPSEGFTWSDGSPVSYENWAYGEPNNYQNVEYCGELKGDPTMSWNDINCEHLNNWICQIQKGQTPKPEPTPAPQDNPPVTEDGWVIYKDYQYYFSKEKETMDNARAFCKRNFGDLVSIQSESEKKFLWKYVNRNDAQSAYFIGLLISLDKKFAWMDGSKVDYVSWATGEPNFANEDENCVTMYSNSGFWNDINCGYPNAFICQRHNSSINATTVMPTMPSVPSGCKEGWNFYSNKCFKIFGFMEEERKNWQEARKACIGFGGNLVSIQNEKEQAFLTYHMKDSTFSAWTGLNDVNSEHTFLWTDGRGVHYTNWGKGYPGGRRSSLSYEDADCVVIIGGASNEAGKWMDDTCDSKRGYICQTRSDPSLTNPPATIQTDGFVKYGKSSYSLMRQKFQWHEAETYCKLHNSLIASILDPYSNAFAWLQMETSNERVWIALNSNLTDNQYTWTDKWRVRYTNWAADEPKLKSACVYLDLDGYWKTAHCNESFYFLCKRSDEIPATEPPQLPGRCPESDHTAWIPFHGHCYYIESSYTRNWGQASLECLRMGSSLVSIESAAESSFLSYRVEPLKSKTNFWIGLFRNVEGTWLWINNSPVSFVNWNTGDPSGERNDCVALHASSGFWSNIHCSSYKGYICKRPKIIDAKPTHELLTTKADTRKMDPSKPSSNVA
Compound,inhibition of binding of DVLR1/CLEC5A to DV (DVLR1/CLEC5A),Percentage of binding of MMR.Fc to GLPS-F3 relative to binding in absence of sugar competitor (MMR.Fc) [%],inhibition of interaction between GLPS-F3 and MMR.Fc (MMR.Fc) [%]
"C[C@H](O)[C@@H](O)[C@@H](O)[C@H](O)C=O [Fuc, L-fucose]",significantly reduced,12 ± 2.0,88
mannan,to a lesser extent,2 ± 0.5,98
"β-1,3-glucan [b-glucan]",,100 ± 4.2,
